Measured values reported in patent publication US5098613A, “Anti-inflammatory agents” (Eli Lilly and Company, priority 1990, dated 1992).
Structures can show the parent of a compound that is named as a salt. Where two headings read alike, the source gives them in different places.

Target: T1, leukotriene B4 specific receptor on the membrane of human neutrophils (Homo sapiens, UniProt Q15722)
T1 construct: incubating neutrophils (1×10^7 cells) with 0.1-0.2 nM ^3 H-LTB4; endogenous in cells; host or cells: human peripheral blood neutrophils (buffy coats of two blood donors)
Test: Inhibition of Binding of ^3 H-LTB4 to Peripheral Human Neutrophils
Settings: for inhibition at 10 µM: read-out: LTB4 Binding Inhibition; for inhibition at 1 µM: drug concentration 10^-6 M
Method: The effectiveness of compounds to inhibit the binding of leukotriene B4 to a specific receptor on the membrane of human neutrophils was measured by using an adaptation of a radio-ligand binding assay developed by Goldman and Goetzl, J. Immunol., 129, 1600 (1982). Other investigators have developed similar assays (see, e.g., Kreisle, et al., J. Exp. Med., 157, 628 (1983) and Lin, et al., Prostaglandins, 28, 837 (1984)).
Cells used in the assay were isolated by standard techniques of centrifugation on Ficol-Hypaque, dextran 70 sedimentation and hypotonic lysis. The following procedure was used. Freshly-prepared buffy coat layers from two individuals were obtained from a local blood donor center. The cells were mixed and diluted to 484 ml. with phosphate buffered saline containing heparin (10 units/ml) and heat-inactivated calf serum (5%). This was divided into 20 ml. aliquots and the aliquots layered on top of Ficoll-Paque (12 ml.). The material was then centrifuged at 500 g. for 40 minutes at room temperature. The resulting upper layer of platelets and mononuclear cells was discarded. The lower layer containing erythrocytes and neutrophils was retained. Buffer was added (1 ml. per 4 ml. of lower layer) and the suspension mixed. For each milliliter of this mixture, 0.33 ml. of 6% Macrodex was added. After stirring, the cels were allowed to sediment for 1 hour at 37° C. The resulting erythrocyte pellet was discarded and the neutrophil enriched supernatant fluid centrifuged at 500 g. for 10 minutes at 4° C. Erythrocytes still present in this cell pellet were lysed by incubating the cells with 5-8 ml. ice-cold distilled water for 30-45 seconds. Subsequently, the volume was made up to 50 ml. by addition of ice-cold buffer and the cells resuspended. The suspension was then centrifuged at 300 g. for 10 minutes at 4° C. The cells were finally resuspended at a cell density of 2×10^7 cells/ml in the assay buffer. This buffer Consisted of Hanks' balanced salt solution and 0.1% ovalbumin (pH 7.3).
The radio-ligand binding assay was conducted by incubating neutrophils (1×10^7 cells) with 0.1-0.2 nM ^3 H-LTB4 (sp. act. 150-220 Curies/mmol) and test compound (1×10^-5 M and 1×10^-6 M) for 10 minutes at 4° C. The amount of bound ^3 H-LTB4 was then measured and compared with the amount bound in the absence of test compound. The assay was carried out in microcentrifuge tubes by adding first 10 μl test compound dissolved in DMSO, followed by adding 20 μl ^3 H-LTB4 diluted in assay buffer, and finally adding 500 μl of the cell suspension pension. At the end of the 10 minutes incubation, 300 μl of a mixture of dibutyl and dinonyl phthalate (7:2) were added and the tubes centrifuged for 2 minutes in a microcentrifuge. The radioactivity bound to the cell pellet was measured by scintillation spectroscopy. Appropriate corrections for nonspecific bonding of ^3 H-LTB4 were made.

[1] = drug concentration 10^-5 M, 4° C., 10 minutes

T1 sequence (Q15722 whole entry): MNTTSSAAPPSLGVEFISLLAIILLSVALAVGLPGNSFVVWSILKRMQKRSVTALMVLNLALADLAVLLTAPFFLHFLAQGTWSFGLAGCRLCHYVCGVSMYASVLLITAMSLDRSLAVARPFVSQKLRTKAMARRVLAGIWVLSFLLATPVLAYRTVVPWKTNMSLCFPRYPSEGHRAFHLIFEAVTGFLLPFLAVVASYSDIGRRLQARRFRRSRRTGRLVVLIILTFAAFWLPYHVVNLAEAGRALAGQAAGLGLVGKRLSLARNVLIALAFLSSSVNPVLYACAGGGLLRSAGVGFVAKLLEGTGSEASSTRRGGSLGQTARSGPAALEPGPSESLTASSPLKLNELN

inhibition at 10 µM [1] [%] | inhibition at 1 µM (4° C., 10 minutes) [%] | Structure (SMILES) | inhibition at 10 µM [%]
50 | 9 | C=CCc1cc(C(C)=O)c(O)cc1OCCCCCC [Example 39, 4-(Hexyloxy)-2-hydroxy-5-allylacetophenone] | 
59 | 22 | C=CCc1cc(C(C)=O)c(O)cc1OCCCCC [Example 41, 4-Pentyloxy-2-hydroxy-5-allylaceto-phenone] | 
6 | 12 | C=CCc1cc(C(C)=O)c(O)cc1OC [Example 42, 2-Hydroxy-4-methoxy-5-allylacetophenone] | 
51 | 15 | C=CCCOc1cc(O)c(C(C)=O)cc1CC=C [Example 45, 4-(3-Butenyloxy)-2-hydroxy-5-allylacetophenone] | 
72 | 26 | C=CCCCCOc1cc(O)c(C(C)=O)cc1CC=C [Example 46, 4-(5-Hexenyloxy)-2-hydroxy-5-allylacetophenone] | 
73 | 29 | C#CCCCCOc1cc(O)c(C(C)=O)cc1CC=C [Example 57, 4-(5-Hexynyloxy)-2-hydroxy-5-allylaceto-phenone] | 
67 | 22 | CCc1cc(C(C)=O)c(O)cc1OCc1cccc(C(F)(F)F)c1 [Example 58, 5-Ethyl-2-hydroxy-4-(3-trifluoromethyl-benzyloxy)acetophenone] | 
12 | 6 | C=CCc1cc(C(C)=O)c(O)cc1OCc1cccc(CC#N)c1 [Example 60, 3-[(4-Acetyl-5-hydroxy-2-allylphenoxy)-methyl]benzeneacetonitrile] | 
88 | 51 | C=CCc1cc(C(C)=O)c(O)cc1OCCCCCCCC#N [Example 69, 8-(4-Acetyl-5-hydroxy-2-allylphenoxy)octanenitrile] | 
50 | 14 | C=CCc1cc(C(C)=O)c(O)cc1OCCCCCCCCCCC#N [Example 70, 11-(4-Acetal-5-hydroxy-2-allylphenoxy)-undecanenitrile] | 
30 | 17 | C=CCc1cc(C(C)=O)c(O)cc1OCc1ccc(CC#N)cc1 [Example 71, 4-[(4-Acetyl-5-hydroxy-2-allylphenoxy)-methyl]benzeneacetonitrile] | 
71 | 23 | CCCc1cc(C(C)=O)c(O)cc1OCCCCNC(C)=O [Example 77, N-[4-(4-Acetyl-5-hydroxy-2-propylphenoxy)-butyl]acetamide] | 
96 | 51 | C=CCc1cc(C(C)=O)c(O)cc1OCCCCCC[S+](C)[O-] (stereo not shown) [Example 79, 2-Hydroxy-4-[6-(methylsulfinyl)hexyloxy]-5-allylacetophenone] | 
71 to 94 | 14 to 59 | CCc1cc(C(C)=O)c(O)cc1OCCCCCCSC [Example 81, 2-Hydroxy-4-[6-(methylthio)hexyloxy]-5-ethylacetophenone] | 
81 | 28 | CCc1cc(C(C)=O)c(O)cc1OCc1cccc(C(=O)O)c1 [Example 84] | 
86 | 37 | CCc1cc(C(C)=O)c(O)cc1OCCCCCCC(=O)O [Example 85, 7-(4-Acetyl-2-ethyl-5-hydroxyphenoxy)heptanoio acid] | 
73 | 23 | C=CCc1cc(C(C)=O)c(O)cc1OCCCCCC(=O)O [Example 86, 6-(4-Acetyl-2-allyl-5-hydroxyphenoxy)hexanoic acid] | 

Second part, the compound before the results:

Structure (SMILES) | inhibition at 10 µM [1] [%] | inhibition at 1 µM (4° C., 10 minutes) [%] | inhibition at 10 µM [%]
CC(=O)c1cc(C(C)=O)c(OCCCCC#N)cc1O [Example 16, 5-(2,4-Diacetyl-5-hydroxy-phenoxy)pentanenitrile] | 8 | -7 | 
CC(=O)c1cc(C=O)c(OCCCCC#N)cc1O [Example 18, 5-(4-Acetyl-5-hydroxy-2-formylphenoxy)-pentanenitrile] | 5 | 3 | 
C=CCc1cc(C(C)=O)c(O)cc1OCCCCCC#N [Example 21, 6-(4-Acetyl-5-hydroxy-2-allylphenoxy)-hexanenitrile] | 81 | 32 | 
C=CCc1cc(C(C)=O)c(O)cc1OCCCCCCCCC#N [Example 23, 9-(4-Aoetyl-5-hydroxy-2-allylphenoxy)-nonanenitrile] | 85 | 50 | 
C=CCc1cc(C(C)=O)c(O)cc1OCCCCCCC#N [Example 24, 7-(4-Acetyl-5-hydroxy-2-allylphenoxy)-] | 94 | 59 | 
C=CCc1cc(C(C)=O)c(O)cc1OCC#N [Example 25, (4-Acetyl-5-hydroxy-2-allylphenoxy)-acetonitrile] | 19 | 2 | 
C=CCc1cc(C(C)=O)c(O)cc1OCCCC#N [Example 26, 4-(4-Acetyl-5-hydroxy-2-allylphenoxy)-butanenitrile] | 46 | 5 | 
CC(=O)c1cc(C)c(OCCCCC#N)cc1O [Example 28, 5-(4-Acetyl-2-methyl-5-hydroxyphenoxy)-pentanenitrile] | 77 | 32 | 
CCCCCCc1cc(C(C)=O)c(O)cc1OCCCCC#N [Example 29, 5-(4-Acetyl-2-hexyl-5-hydroxyphenoxy)-pentanenitrile] | 51 | 12 | 
CCCCCc1cc(C(C)=O)c(O)cc1OCCCCC#N [Example 31, 5-(4-Acetyl-5-hydroxy-2-pentylphenoxy)-pentanenitrile] | 30 | 14 | 
C=CCc1cc(C(C)=O)c(O)cc1OCCCCCCC [Example 37, 4-(Heptyloxy)-2-hydroxy-5-allylacetophenone] | 31 | 8 | 
C=CCc1cc(C(C)=O)c(O)cc1OCCCC [Example 40, 4-Butoxy-2-hydroxy-5-allylacetophenone] | 31 | 8 | 
C=CCc1cc(C(C)=O)c(O)cc1OCCCCO [Example 44, 4-(4-Hydroxybutoxy)-5-allyl-2-huydroxy-aoetophenone] | 47 | 9 | 
CCCc1cc(C(C)=O)c(O)cc1OCCCCN [Example 74, 4-(4-Aminobutoxy)-2-hydroxy-5-propylacetophenone hydrochloride] | 0 | 0 | 
C=CCc1cc(C(C)=O)c(O)cc1OCCCCN1CCOCC1 [Example 75, 2-Hydroxy-4-[4-(4-morpholino)butoxy]-5-allylacetophenone hydrochloride] | 0 | 0 | 
C=CCc1cc(C(C)=O)c(O)cc1OCCCCCCS(C)(=O)=O [Example 80, 2-hydroxy-4-[6-(methylsulfonyl)-hexyloxy]-5-allylacetophenone] |  | 62 | 100
CCc1cc(C(=O)CCCC(=O)O)c(O)cc1OCCCCC#N [Example 88, 5-[(4-Cyanobutoxy)-5-ethyl-2-hydroxybenzene]-5-oxopentanoic acid] | 19 | -1 | 
CCc1cc(C(=O)c2ccc(C(=O)O)cc2)c(O)cc1OCCCCC#N [Example 91, 4[4-(4-Cyanobutoxy)-5-ethyl-2-hydroxybenzoyl]benzoic acid] | 26 | 20 | 
